Patent publication US12692261B2, “Substituted heterocyclic compounds and therapeutic uses thereof” (Bayer Aktiengesellschaft, priority 2020, dated 2026)

Key:
full-length human CSNK1D = biological target: T1, full-length human CSNK1D (Homo sapiens, UniProt P48730); assay: CSNK1D Assay (ADP-Glo, 1 μM ATP); type: biochemical; settings: Table 3, read-out: CSNK1D IC50 [mol/l] (median)
T1 construct: N-terminal Glutathion-S-Transferase (GST) and full-length human CSNK1D; purchased Life Technologies PV3665; host or cells: baculovirus infected insect cells
T1 sequence (P48730 whole entry): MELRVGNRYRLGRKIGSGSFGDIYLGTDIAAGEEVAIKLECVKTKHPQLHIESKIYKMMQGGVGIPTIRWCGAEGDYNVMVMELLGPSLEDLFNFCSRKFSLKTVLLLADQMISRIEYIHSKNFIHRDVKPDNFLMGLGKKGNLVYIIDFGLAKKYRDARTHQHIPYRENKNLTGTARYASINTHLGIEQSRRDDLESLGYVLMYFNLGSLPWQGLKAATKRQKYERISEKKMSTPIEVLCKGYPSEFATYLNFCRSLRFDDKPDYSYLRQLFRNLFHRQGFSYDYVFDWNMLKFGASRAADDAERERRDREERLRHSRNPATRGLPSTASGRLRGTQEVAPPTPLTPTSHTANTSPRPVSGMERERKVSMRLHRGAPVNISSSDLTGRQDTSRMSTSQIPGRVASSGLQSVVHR
In short: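 Enzyme is N-terminal GST-tagged full-length human CSNK1D from baculovirus-infected insect cells (typically about 0.5 ng/μL), with a biotinylated peptide substrate and 1 μM ATP. Compound pre-incubated 15 min at 22° C in HEPES pH 7.5 buffer; ADP formed is read by ADP-Glo luminescence.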

[1] = biological target: T2, full-length human CSNK1A1 (Homo sapiens, UniProt P48729); assay: CSNK1A1 Assay 2 (ADP-Glo, 1 μM ATP, substrate biotin-Ahx-KRRRAL-pS-VASLPGL); type: biochemical; settings: Table 3, read-out: CSNK1A1 Assay 2 IC50 [mol/l] (median)
T2 construct: N-terminal Glutathion-S-Transferase (GST) and full-length human CSNK1A1; purchased Life Technologies PV4174; host or cells: baculovirus infected insect cells
T2 sequence (P48729 whole entry): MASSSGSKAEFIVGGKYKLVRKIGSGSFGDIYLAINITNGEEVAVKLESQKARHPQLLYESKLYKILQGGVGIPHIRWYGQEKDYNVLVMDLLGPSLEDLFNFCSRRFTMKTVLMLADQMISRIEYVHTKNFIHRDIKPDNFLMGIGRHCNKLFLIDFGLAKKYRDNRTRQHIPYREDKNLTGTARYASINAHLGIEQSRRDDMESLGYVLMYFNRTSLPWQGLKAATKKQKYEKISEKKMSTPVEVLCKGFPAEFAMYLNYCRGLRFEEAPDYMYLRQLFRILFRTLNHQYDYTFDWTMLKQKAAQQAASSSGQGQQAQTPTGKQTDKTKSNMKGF
In short: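 GST-tagged full-length human CSNK1A1 from baculovirus-infected insect cells (about 0.0375 ng/μL), preincubated 15 min at 22 °C with compound in HEPES pH 7.5 buffer, with 1 μM ATP and biotin-Ahx-KRRRAL-pS-VASLPGL substrate. ADP formed read by ADP-Glo luminescence.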

Structure (SMILES)	IC50 (full-length human CSNK1D)	IC50 [1]
O=C(Nc1cc(-c2[nH]c3c(OCC(F)(F)F)ncnc3c2-c2ccccn2)ccn1)C(CC(F)F)c1ccc(F)cc1 (single isomer, unassigned) [Example 123, (2R or S)-4,4-difluoro-2-(4-fluorophenyl)-N-{4-[7-(pyridin-2-yl)-4-(2,2,2-trifluoroethoxy)-5H-pyrrolo[3,2-d]pyrimidin-6-yl]pyridin-2-yl}butanamide]	4.49 nM	4.5 nM
O=C(Nc1cc(-c2[nH]c3c(OCC(F)(F)F)ncnc3c2-c2ccccn2)ccn1)C(CC(F)F)c1ccc(F)cc1 (single isomer, unassigned) [Example 124, (2R or S)-4,4-difluoro-2-(4-fluorophenyl)-N-{4-[7-(pyridin-2-yl)-4-(2,2,2-trifluoroethoxy)-5H-pyrrolo[3,2-d]pyrimidin-6-yl]pyridin-2-yl}butanamide]	46.6 nM	30 nM
O=C(Nc1cc(-c2[nH]c3c(OCC(F)(F)F)ncnc3c2-c2ccccn2)ccn1)C(CC(F)(F)F)c1ccc(F)cc1 (single isomer, unassigned) [Example 126, (2R or S)-4,4,4-trifluoro-2-(4-fluorophenyl)-N-{4-[7-(pyridin-2-yl)-4-(2,2,2-trifluoroethoxy)-5H-pyrrolo[3,2-d]pyrimidin-6-yl]pyridin-2-yl}butanamide]	7.84 nM	5.94 nM
O=C(Nc1cc(-c2[nH]c3c(OCC(F)(F)F)ncnc3c2-c2ccccn2)ccn1)C(CC(F)(F)F)c1ccc(F)cc1 (single isomer, unassigned) [Example 127, (2R or S)-4,4,4-trifluoro-2-(4-fluorophenyl)-N-{4-[7-(pyridin-2-yl)-4-(2,2,2-trifluoroethoxy)-5H-pyrrolo[3,2-d]pyrimidin-6-yl]pyridin-2-yl}butanamide]	88.1 nM	85 nM
O=C(Nc1cc(-c2[nH]c3c(OCC4CC4)ncnc3c2-c2ccccn2)ccn1)C(CC(F)F)c1ccc(F)cc1 (single isomer, unassigned) [Example 129, (2R or S)—N-{4-[4-(cyclopropylmethoxy)-7-(pyridin-2-yl)-5H-pyrrolo[3,2-d]pyrimidin-6-yl]pyridin-2-yl}-4,4-difluoro-2-(4-fluorophenyl)butanamide]	5.94 nM	4.52 nM
O=C(Nc1cc(-c2[nH]c3c(OCC4CC4)ncnc3c2-c2ccccn2)ccn1)C(CC(F)F)c1ccc(F)cc1 (single isomer, unassigned) [Example 130, (2R or S)—N-{4-[4-(cyclopropylmethoxy)-7-(pyridin-2-yl)-5H-pyrrolo[3,2-d]pyrimidin-6-yl]pyridin-2-yl}-4,4-difluoro-2-(4-fluorophenyl)butanamide]	55.8 nM	43.7 nM
O=C(Nc1cc(-c2[nH]c3cccnc3c2-c2ccccn2)ccn1)C(CC(F)F)c1ccc(F)cc1 (single isomer, unassigned; (+)) [Example 11, (+)-4,4-difluoro-2-(4-fluorophenyl)-N-{4-[3-(pyridin-2-yl)-1H-pyrrolo[3,2-b]pyridin-2-yl]pyridin-2-yl}butanamide]	2.57 nM	1.2 nM
O=C(Nc1cc(-c2[nH]c3cncnc3c2-c2ccccn2)ccn1)C(CC(F)F)c1ccc(F)cc1 (single isomer, unassigned; (+)) [Example 15, (+)-4,4-difluoro-2-(4-fluorophenyl)-N-{4-[7-(pyridin-2-yl)-5H-pyrrolo[3,2-d]pyrimidin-6-yl]pyridin-2-yl}butanamide]	3.06 nM	1.32 nM
O=C(Nc1cc(-c2[nH]c3cc(F)cnc3c2-c2ccccn2)ccn1)C(CC(F)F)c1ccc(F)cc1 (single isomer, unassigned; (+)) [Example 17, (+)-4,4-difluoro-2-(4-fluorophenyl)-N-{4-[6-fluoro-3-(pyridin-2-yl)-1H-pyrrolo[3,2-b]pyridin-2-yl]pyridin-2-yl}butanamide]	3.16 nM	1.7 nM
O=C(Nc1cc(-c2[nH]c3cc(F)cnc3c2-c2ccccc2)ccn1)C(CC(F)F)c1ccc(F)cc1 (single isomer, unassigned; (+)) [Example 21, (+)-4,4-difluoro-2-(4-fluorophenyl)-N-[4-(6-fluoro-3-phenyl-1H-pyrrolo[3,2-b]pyridin-2-yl)pyridin-2-yl]butanamide]	3.59 nM	4.21 nM
O=C(Nc1cc(-c2[nH]c3cccnc3c2-c2ccccc2)ccn1)C(CC(F)F)c1ccc(F)cc1 (single isomer, unassigned; (+)) [Example 24, (+)-4,4-difluoro-2-(4-fluorophenyl)-N-[4-(3-phenyl-1H-pyrrolo[3,2-b]pyridin-2-yl)pyridin-2-yl]butanamide]	2.48 nM	1.62 nM
O=C(Nc1cc(-c2[nH]c3cccnc3c2-c2cccc(F)n2)ccn1)C(CC(F)F)c1ccc(F)cc1 (single isomer, unassigned; (+)) [Example 27, (+)-4,4-difluoro-2-(4-fluorophenyl)-N-{4-[3-(6-fluoropyridin-2-yl)-1H-pyrrolo[3,2-b]pyridin-2-yl]pyridin-2-yl}butanamide]	4.05 nM	1.55 nM
COc1cc(F)nc2c(-c3ccccn3)c(-c3ccnc(NC(=O)C(CC(F)F)c4ccc(F)cc4)c3)[nH]c12 (single isomer, unassigned; (+)) [Example 40, (+)-4,4-difluoro-N-{4-[5-fluoro-7-methoxy-3-(pyridin-2-yl)-1H-pyrrolo[3,2-b]pyridin-2-yl]pyridin-2-yl}-2-(4-fluorophenyl)butanamide]	5.57 nM	3.69 nM
O=C(Nc1cc(-c2[nH]c3ccc(F)nc3c2-c2ccc(F)cn2)ccn1)C(CC(F)F)c1ccc(F)cc1 (single isomer, unassigned; (+)) [Example 109, (+)-4,4-difluoro-N-{4-[5-fluoro-3-(5-fluoropyridin-2-yl)-1H-pyrrolo[3,2-b]pyridin-2-yl]pyridin-2-yl}-2-(4-fluorophenyl)butanamide]	3.41 nM	3.14 nM
O=C(Nc1cc(-c2[nH]c3cccnc3c2-c2ccccn2)ccn1)C(CC(F)F)c1ccc(F)cc1 (single isomer, unassigned; (-)) [Example 12, (−)-4,4-difluoro-2-(4-fluorophenyl)-N-{4-[3-(pyridin-2-yl)-1H-pyrrolo[3,2-b]pyridin-2-yl]pyridin-2-yl}butanamide]	12.4 nM	4.45 nM
O=C(Nc1cc(-c2[nH]c3cncnc3c2-c2ccccn2)ccn1)C(CC(F)F)c1ccc(F)cc1 (single isomer, unassigned; (-)) [Example 14, (−)-4,4-difluoro-2-(4-fluorophenyl)-N-{4-[7-(pyridin-2-yl)-5H-pyrrolo[3,2-d]pyrimidin-6-yl]pyridin-2-yl}butanamide]	28.5 nM	16.4 nM
O=C(Nc1cc(-c2[nH]c3cc(F)cnc3c2-c2ccccn2)ccn1)C(CC(F)F)c1ccc(F)cc1 (single isomer, unassigned; (-)) [Example 18, (−)-4,4-difluoro-2-(4-fluorophenyl)-N-{4-[6-fluoro-3-(pyridin-2-yl)-1H-pyrrolo[3,2-b]pyridin-2-yl]pyridin-2-yl}butanamide]	25.4 nM	16.2 nM
O=C(Nc1cc(-c2[nH]c3cc(F)cnc3c2-c2ccccc2)ccn1)C(CC(F)F)c1ccc(F)cc1 (single isomer, unassigned; (-)) [Example 20, (−)-4,4-difluoro-2-(4-fluorophenyl)-N-[4-(6-fluoro-3-phenyl-1H-pyrrolo[3,2-b]pyridin-2-yl)pyridin-2-yl]butanamide]	47.8 nM	132 nM
O=C(Nc1cc(-c2[nH]c3cccnc3c2-c2ccccc2)ccn1)C(CC(F)F)c1ccc(F)cc1 (single isomer, unassigned; (-)) [Example 23, (−)-4,4-difluoro-2-(4-fluorophenyl)-N-[4-(3-phenyl-1H-pyrrolo[3,2-b]pyridin-2-yl)pyridin-2-yl]butanamide]	12.5 nM	33.6 nM
O=C(Nc1cc(-c2[nH]c3cccnc3c2-c2cccc(F)n2)ccn1)C(CC(F)F)c1ccc(F)cc1 (single isomer, unassigned; (-)) [Example 26, (−)-4,4-difluoro-2-(4-fluorophenyl)-N-{4-[3-(6-fluoropyridin-2-yl)-1H-pyrrolo[3,2-b]pyridin-2-yl]pyridin-2-yl}butanamide]	50.7 nM	15.8 nM
Cc1cc(F)nc2c(-c3ccccn3)c(-c3ccnc(NC(=O)C(CC(F)F)c4ccc(F)cc4)c3)[nH]c12 (single isomer, unassigned; (-)) [Example 38, (−)-4,4-difluoro-N-{4-[5-fluoro-7-methyl-3-(pyridin-2-yl)-1H-pyrrolo[3,2-b]pyridin-2-yl]pyridin-2-yl}-2-(4-fluorophenyl)butanamide]	3.8 nM	2.26 nM
COc1cc(F)nc2c(-c3ccccn3)c(-c3ccnc(NC(=O)C(CC(F)F)c4ccc(F)cc4)c3)[nH]c12 (single isomer, unassigned; (-)) [Example 41, (−)-4,4-difluoro-N-{4-[5-fluoro-7-methoxy-3-(pyridin-2-yl)-1H-pyrrolo[3,2-b]pyridin-2-yl]pyridin-2-yl}-2-(4-fluorophenyl)butanamide]	4.13 nM	3.37 nM
O=C(Nc1cc(-c2[nH]c3ccc(F)nc3c2-c2ccc(F)cn2)ccn1)C(CC(F)F)c1ccc(F)cc1 (single isomer, unassigned; (-)) [Example 110, (−)-4,4-difluoro-N-{4-[5-fluoro-3-(5-fluoropyridin-2-yl)-1H-pyrrolo[3,2-b]pyridin-2-yl]pyridin-2-yl}-2-(4-fluorophenyl)butanamide]	43 nM	47.6 nM
